Legend:
QGP-1 cells = assay: 5-HT production in QGP-1 cells; format: cell-based, human; settings: 25-200 μM, 24 hours, FIG. 10D-E
Protocol: (§1) QGP-1 cells were cultured in RPMI 1640 medium supplemented with 10% fetal bovine serum (FBS). QGP-1 is a human pancreatic endocrine cell line that produces 5-HT. To evaluate the effects of phenylalanine, phenethylamine, and phenylacetic acid on 5-HT production, QGP-1 cells were treated with or without phenylalanine, phenethylamine, and phenylacetic acid at the indicated concentrations and times.
(§2) An Agilent 1290 Infinity II UPLC system coupled to a triple quadrupole (QQQ) 6470 mass spectrometer was used for targeted metabolomics profiling. A Waters BEH 2.1×50 mm C18 1.7 μm column with a pre-column was used. The mobile phase used in LC-MS-QQQ was solution A (water with 0.1% formic acid) and solution B (acetonitrile with 0.1% formic acid). The gradients were set as 2% B (0-0.5 min), 2%-30% B (0.5-4 min), […] B (4-6 min), 100% B (6-8 min), 100%-2% B (8-8.1 min) and maintain in 2% B (8.1-10 min). The MS data were collected and processed using Agilent software. The standard list, MRM transition, fragmentor, and collision energy are listed in (Table 3).

TAAR1 [1] = target: T1, TAAR1 (Mus musculus, UniProt Q923Y8); assay: EPPTB in antibiotic-treated mice transplanted with IBS-D fecal microbiota (FMT); format: in vivo; settings: EPPTB 10 mg/kg, p<0.05
T1 construct: is expressed in EC cells in the GI tract; from tissue; host or cells: living mice (conventional, antibiotic-treated, or wild-type littermates of Taar1 KO, C57Bl/6J)
T1 sequence (Q923Y8 whole entry): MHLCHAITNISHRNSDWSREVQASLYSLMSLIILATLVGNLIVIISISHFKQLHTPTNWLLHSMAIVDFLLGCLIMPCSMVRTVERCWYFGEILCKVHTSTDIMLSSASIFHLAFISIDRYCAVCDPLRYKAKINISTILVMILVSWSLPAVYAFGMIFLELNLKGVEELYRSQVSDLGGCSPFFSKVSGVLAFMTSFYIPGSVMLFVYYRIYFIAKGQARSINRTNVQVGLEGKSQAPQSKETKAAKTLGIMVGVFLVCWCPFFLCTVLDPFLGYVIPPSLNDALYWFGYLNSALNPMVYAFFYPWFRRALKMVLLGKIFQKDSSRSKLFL
Protocol: A broad-spectrum antibiotic mixture (ABX) containing vancomycin (100 mg/kg), neomycin (200 mg/kg), metronidazole (200 mg/kg), and ampicillin (200 mg/kg) was used to establish an antibiotic-treated mouse model. Briefly, the antibiotic mixture was administered to mice by oral gavage for 10 consecutive days prior to fecal microbial transplantation (FMT) or the colonization study. For the fecal pellet water content test, 1.5 mL Eppendorf tubes were pre-weighed and used to collect fecal pellets from mice immediately after defecation. The tubes were then closed to measure wet weight. Afterward, the tubes were opened and placed in an oven at 60° C. overnight to measure the dry weight. Fecal pellet water content was measured by subtracting the dry weight from the wet weight and normalizing it to the wet pellet mass. Fecal pellets from mice were also counted within 2 h of the defecation frequency test. Carmine red assay: […] The mice were placed on white sheet paper to track the red pellet in their cages after oral gavage. The total time taken for the appearance of the first red pellet after oral gavage was recorded as gut transit time. Fecal samples from IBS-D patients and HC participants (n=8/group) were prepared as suspensions in PBS at a concentration of (100 mg/mL). […] After the FMT, GI transit, stool consistency, and defecation frequency were measured. […]

TAAR1 [2] = target: T1, TAAR1; assay: TAAR1 antagonist EPPTB in phenethylamine-treated mice; format: in vivo; settings: EPPTB 10 mg/kg, phenethylamine 10 mg/kg, p<0.05
Protocol: (§3) To study phenethylamine and tryptamine effects on 5-HT production, phenethylamine and tryptamine at a dosage of 2 mg/kg, 5 mg/kg and 10 mg/kg (dissolved in 0.5% CMC-Na, sodium carboxymethyl cellulose) were administered to mice by oral gavage. Mice treated with/without phenethylamine and tryptamine were sacrificed under isoflurane anesthesia. Biological samples including serum, duodenum, ileum, proximal colon and distal colon tissues and luminal contents in each intestinal segments were collected at indicated dosages and times and stored at −80° C. until analysis.
(§4) For the fecal pellet water content test, 1.5 mL Eppendorf tubes were pre-weighed and used to collect fecal pellets from mice immediately after defecation. The tubes were then closed to measure wet weight. Afterward, the tubes were opened and placed in an oven at 60° C. overnight to measure the dry weight. Fecal pellet water content was measured by subtracting the dry weight from the wet weight and normalizing it to the wet pellet mass. Fecal pellets from mice were also counted within 2 h of the defecation frequency test.
(§5) Carmine red assay: Mice were administered 300 μL of 6% carmine red solution (prepared by 0.5% methylcellulose) by oral gavage to measure the GI transit time after treatment with phenethylamine at the indicated dosages. The mice were placed on white sheet paper to track the red pellet in their cages after oral gavage. The total time taken for the appearance of the first red pellet after oral gavage was recorded as gut transit time.
(§6) Colonic tissues were lysed in RIPA buffer containing protease inhibitor cocktails in a tissuelyzer. The tissue lysates were centrifuged at 15,000 rpm for 15 min at 4° C. and quantified by BCA kit for protein concentration. The protein content normalized supernatant was mixed with 5× loading buffer and heated at 98° C. in a dry bath for 10 min. The samples were evaluated according to the western blotting protocol (Abcam). The blots were incubated with HRP-conjugated anti-rabbit IgG or anti-mouse IgG and reacted with enhanced chemiluminescence.

TAAR1 [3] = target: T1, TAAR1; assay: EPPTB in antibiotic-treated mice colonized with R. gnavus (ATCC 29149); format: in vivo; settings: EPPTB 10 mg/kg, p<0.05
Protocol: A broad-spectrum antibiotic mixture (ABX) containing vancomycin (100 mg/kg), neomycin (200 mg/kg), metronidazole (200 mg/kg), and ampicillin (200 mg/kg) was used to establish an antibiotic-treated mouse model. Briefly, the antibiotic mixture was administered to mice by oral gavage for 10 consecutive days prior to fecal microbial transplantation (FMT) or the colonization study.
R. gnavus (strain ATCC 29149) was first grown on tryptic soy broth (TSB) agar plates and cultured in TSB broth using a single colony. R. gnavus (strain ATCC 29149) was collected from the medium by centrifuging at 3,500 rpm for 10 min at room temperature. These bacterial strains were then reconstituted in 200 μL of sterilized phosphate-buffered saline and administered to antibiotic-treated mice by oral gavage. Fecal samples were collected daily to measure fecal phenethylamine levels in antibiotic-treated mice before and after oral administration of bacterial strains.
as §4, §5

TAAR1 [4] = target: T1, TAAR1; assay: EPPTB on phenethylamine-induced 5-HT elevation in mice intestine tissues cultured ex vivo; format: cell-based; settings: EPPTB 50 μM, p<0.05, FIG. 5I
Protocol: (§7) Mouse and human colonic tissues were collected as previously described. To investigate the effects of phenethylamine on 5-HT levels in mouse and human colon tissues, the colonic tissues were cut into small pieces (0.5 cm) and placed in a 12-well cell culture plate. Colon pieces were added to DMEM/F12 medium containing 5% fetal bovine serum, penicillin-streptomycin (1×), and gentamycin (20 μg/ml), followed by treatment with phenethylamine and EPPTB, as indicated. Colon pieces were incubated at 37° C. with 5% CO2 and 95% air. A 200 μL volume of medium was collected from each well at the indicated time points for the analysis of 5-HT.

mouse intestinal tissues = assay: 5-HT production in mouse intestinal tissues cultured ex vivo; format: cell-based; settings: 25 μM and 50 μM, p<0.05, FIG. 4A-B
Protocol: as §7, §2

[5] = Phenethylamine level in intestinal tissues and luminal content after oral gavage; format: in vivo, mouse; settings: for concentration at 0 min / concentration at 15 min / concentration at 30 min: mouse, oral
Protocol: as §2, §3

TAAR1 [6] = target: T1, TAAR1; assay: Phenethylamine in Taar1-/- mice and wild-type littermates; format: in vivo; settings: Taar1-/- mice vs wild-type littermates, phenethylamine 10 mg/kg, p<0.05
Protocol: as §4, §5
Taar1 (NM_053205) knockout mouse model (C57Bl/6J) was generated by CRISPR/Cas-mediated genome engineering. All the Taar1 KO mice and their wildtype littermates were genotyped using PCR and Southern blot [F1: […] (SEQ ID NO:3), R1: […] (SEQ ID NO:4), R2: […] (SEQ ID NO:5)]. The product size of F1 and R1 is 989 bp while the product size of F1 and R2 is 625 bp. […]

human colonic tissues = assay: 5-HT production in human colonic tissues cultured ex vivo; format: cell-based; settings: 50 μM, p<0.05, FIG. 10A
Protocol: as §7, §2

PKA and CaMKII = assay: Western blot of PKA and CaMKII phosphorylation in colonic tissues of phenethylamine-treated mice; format: in vivo, mouse; settings: colonic tissues of mice, 2, 5 and 10 mg/kg, p<0.05
Protocol: as §3, §6

5-HT production = assay: Oral phenethylamine/tryptamine administration in mice: 5-HT levels, GI transit, fecal water content; format: in vivo, mouse; settings: for GI transit / fecal water content / serum and intestinal 5-HT levels: mice, oral administration, 2, 5 and 10 mg/kg, p<0.01
Protocol: as §2, §3, §4, §5

5-HTR4 = target: T2, 5-HTR4 (Homo sapiens, UniProt Q13639); assay: 5-HTR4 antagonist Piboserod on phenethylamine/tryptamine-stimulated 5-HT in QGP-1 cells; format: cell-based; settings: 24 hours, FIG. 11M
T2 construct: endogenous in cells; host or cells: QGP-1
T2 sequence (Q13639 whole entry): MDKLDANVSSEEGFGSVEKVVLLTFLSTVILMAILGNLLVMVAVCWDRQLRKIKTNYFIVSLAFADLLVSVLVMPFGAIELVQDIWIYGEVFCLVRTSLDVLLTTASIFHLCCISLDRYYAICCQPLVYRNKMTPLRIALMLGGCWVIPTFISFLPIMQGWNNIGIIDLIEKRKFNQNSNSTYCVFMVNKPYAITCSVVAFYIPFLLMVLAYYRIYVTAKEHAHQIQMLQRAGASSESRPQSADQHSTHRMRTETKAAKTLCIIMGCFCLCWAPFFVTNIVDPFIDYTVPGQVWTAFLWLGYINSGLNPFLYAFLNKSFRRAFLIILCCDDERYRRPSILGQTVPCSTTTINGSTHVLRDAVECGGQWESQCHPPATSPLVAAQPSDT
Protocol: as §1

[7] = serum of phenethylamine-treated mice, FIG. 5A

## O=C(O)Cc1ccccc1 [phenylacetic acid]
QGP-1 cells
  5-HT levels in QGP-1 cells (precursors and metabolites): did not change the 5-HT levels

## indole acetic acid
QGP-1 cells
  5-HT levels in QGP-1 cells (precursors and metabolites): did not change the 5-HT levels

## CCOc1cccc(NC(=O)c2ccc(N3CCCC3)c(C(F)(F)F)c2)c1 [EPPTB, N-(3-ethoxy-phenyl)-4-pyrrolidin-1-yl-3-trifluoromethyl-benzamide]
TAAR1 [1]
  pathological changes induced by transplantation of IBS-D fecal microbiota (colonic 5-HT, GI transit, defecation frequency): largely suppressed
TAAR1 [2]; mice
  phenethylamine-induced 5-HT production: suppressed
  phenethylamine-induced 5-HTP/Trp and 5-HT/5-HTP ratios: inhibited by EPPTB treatment
  phenethylamine-induced GI transit acceleration: suppressed
  phenethylamine-induced colonic secretion increase: suppressed
  phenethylamine-induced increased levels of serum 5-HTP: inhibited by EPPTB treatment
TAAR1 [2]; proximal colonic tissues of mice
  phenethylamine-induced activation of PKA and CaMKII: inhibited
TAAR1 [3]
  R. gnavus-induced 5-HT elevation in serum: suppressed by EPPTB treatment
  R. gnavus-induced accelerated GI transit: suppressed by EPPTB treatment
  R. gnavus-induced increased fecal water content: suppressed by EPPTB treatment
TAAR1 [4]
  phenethylamine-induced 5-HT elevation in mice intestine tissues cultured ex vivo: suppressed

## NCCc1ccccc1 [phenethylamine]
Mouse intestinal tissues
  5-HT production in mouse intestinal tissues: significantly enhanced 5-HT production
[5]; Duodenum, 15 min
  Phenethylamine level, Concentration: 1082 µg/g
[5]; Luminal content in duodenum, 15 min
  Phenethylamine level, Concentration: 1245 µg/g
[5]; Luminal content in duodenum, 30 min
  Phenethylamine level, Concentration: 1200 µg/g
[5]; luminal content of duodenum, Luminal content in duodenum
  concentration at 0 min: 3000 ng/g
[5]; luminal content of ileum, Luminal content in ileum
  concentration at 0 min: 1670 ng/g
[5]; luminal content of ileum, Luminal content in ileum, 15 min
  concentration at 15 min: 29700 ng/g
[5]; luminal content of ileum, Luminal content in ileum, 30 min
  concentration at 30 min: 9300 ng/g
[5]; luminal content of proximal colon, Luminal content in proximal colon
  concentration at 0 min: 3700 ng/g
[5]; luminal content of proximal colon, Luminal content in proximal colon, 15 min
  concentration at 15 min: 112000 ng/g
[5]; luminal content of proximal colon, Luminal content in proximal colon, 30 min
  concentration at 30 min: 58900 ng/g
[5]; Duodenum
  concentration at 0 min: 230 ng/g
[5]; Duodenum, 30 min
  concentration at 30 min: 879000 ng/g
[5]; Ileum
  concentration at 0 min: 240 ng/g
[5]; Ileum, 15 min
  concentration at 15 min: 24000 ng/g
[5]; Ileum, 30 min
  concentration at 30 min: 8000 ng/g
[5]; Proximal colon
  concentration at 0 min: 12000 ng/g
[5]; Proximal colon, 15 min
  concentration at 15 min: 116000 ng/g
[5]; Proximal colon, 30 min
  concentration at 30 min: 38000 ng/g
TAAR1 [6]
  phenethylamine-induced changes in 5-HT production, GI transit and secretion under genetic ablation of TAAR1: abolished phenethylamine-induced changes in 5-HT production, GI transit, and secretion
Human colonic tissues
  5-HT production in human colonic tissues: significantly enhanced 5-HT production
PKA and CaMKII
  phosphorylation of PKA and CaMKII: an increase in the phosphorylation of these proteins
5-HT production; mice, 2, 5 and 10 mg/kg, FIG. 11A-C
  circulating 5-HTP levels: increase in circulating 5-HTP levels in mice in a dose-dependent manner
5-HT production
  GI transit: accelerated GI transit
  fecal water content: increased fecal water content
  serum and intestinal 5-HT levels: significantly elevated serum and intestinal 5-HT levels
5-HT production; [7]
  5-HIAA/5-HT ratio: but not the 5-HIAA/5-HT ratio, were increased
  5-HT/5-HTP ratio: increased
  5-HTP/Trp ratio: increased

## CCCCN1CCC(CNC(=O)c2c3n(c4ccccc24)CCCO3)CC1 [Piboserod]
5-HTR4
  5-HT levels stimulated by phenethylamine or tryptamine: did not restore 5-HT levels
  tryptamine-stimulated 5-HT production: modest reduction of tryptamine-stimulated 5-HT production

## N[C@@H](Cc1c[nH]c2ccccc12)C(=O)O [tryptophan]
QGP-1 cells
  5-HT levels in QGP-1 cells (precursors and metabolites): did not change the 5-HT levels

## NCCc1c[nH]c2ccccc12 [tryptamine]
Mouse intestinal tissues
  5-HT production in mouse intestinal tissues: significantly enhanced 5-HT production
Human colonic tissues
  5-HT production in human colonic tissues: significantly enhanced 5-HT production
5-HT production
  GI transit: accelerated GI transit
  fecal water content: increased fecal water content
  serum and intestinal 5-HT levels: significantly elevated serum and intestinal 5-HT levels

## N[C@@H](Cc1ccccc1)C(=O)O [phenylalanine]
QGP-1 cells
  5-HT levels in QGP-1 cells (precursors and metabolites): did not change the 5-HT levels

Source: US20240307361A1, “METHOD FOR DIAGNOSING AND TREATING IRRITABLE BOWEL SYNDROME” (Centre for Chinese Herbal Medicine Drug Development Limited, priority 2023, published 2024)
